Source: PubChem BioAssay (NCI)
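Dose response: 5 concentrations. Exposure: 48 h. Format: 96-well plates. Endpoint: linear interpolation; highest concentration if not reached. At the TGI there is no net growth.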

Key:
Assay in all cases: NCI tumour cell line growth inhibition, 48 h
[1] = tested on: 786-0 renal
[2] = tested on: A498 renal
[3] = tested on: A549 NSCLC
[4] = tested on: ACHN renal
[5] = tested on: BT-549 breast
[6] = tested on: CAKI-1 renal
[7] = tested on: CCRF-CEM leukemia
[8] = tested on: COLO 205 colon
[9] = tested on: DLD-1 colon
[10] = tested on: DMS 114 small cell lung
[11] = tested on: DMS 273 small cell lung
[12] = tested on: DU-145 prostate
[13] = tested on: EKVX NSCLC
[14] = tested on: HCC-2998 colon
[15] = tested on: HCT-116 colon
[16] = tested on: HCT-15 colon
[17] = tested on: HL-60(TB) leukemia
[18] = tested on: HOP-18 NSCLC
[19] = tested on: HOP-62 NSCLC
[20] = tested on: HOP-92 NSCLC
[21] = tested on: HS 578T breast
[22] = tested on: HT29 colon
[23] = tested on: IGROV1 ovarian
[24] = tested on: K-562 leukemia
[25] = tested on: KM12 colon
[26] = tested on: KM20L2 colon
[27] = tested on: LOX IMVI melanoma
[28] = tested on: LXFL 529 NSCLC
[29] = tested on: M14 melanoma
[30] = tested on: M19-MEL melanoma
[31] = tested on: MALME-3M melanoma
[32] = tested on: MCF7 breast
[33] = tested on: MDA-MB-231 breast
[34] = tested on: MDA-MB-435
[35] = tested on: MDA-N
[36] = tested on: MOLT-4 leukemia
[37] = tested on: NCI-H226 lung
[38] = tested on: NCI-H23 lung
[39] = tested on: NCI-H460 lung
[40] = tested on: NCI-H522 lung
[41] = tested on: NCI/ADR-RES ovarian
[42] = tested on: OVCAR-3 ovarian
[43] = tested on: OVCAR-4 ovarian
[44] = tested on: OVCAR-5 ovarian
[45] = tested on: OVCAR-8 ovarian
[46] = tested on: PC-3 prostate
[47] = tested on: RPMI-8226 leukemia
[48] = tested on: RXF 393 renal
[49] = tested on: RXF-631 renal
[50] = tested on: SF-268 CNS
[51] = tested on: SF-295 CNS
[52] = tested on: SF-539 CNS
[53] = tested on: SK-MEL-2 melanoma
[54] = tested on: SK-MEL-28 melanoma
[55] = tested on: SK-MEL-5 melanoma
[56] = tested on: SK-OV-3 ovarian
[57] = tested on: SN12C renal
[58] = tested on: SNB-19 CNS
[59] = tested on: SNB-75 CNS
[60] = tested on: SNB-78 CNS
[61] = tested on: SR leukemia
[62] = tested on: SW-620 colon
[63] = tested on: T-47D breast
[64] = tested on: TK-10 renal
[65] = tested on: U251 CNS
[66] = tested on: UACC-257 melanoma
[67] = tested on: UACC-62 melanoma
[68] = tested on: UO-31 renal
[69] = tested on: XF 498 CNS

CN(C)[C@@H]1C(=O)C(C(=O)NCNc2nc3n[nH]nc3c(=O)[nH]2)=C(O)[C@@]2(O)C(=O)C3=C(O)c4c(O)cccc4[C@@](C)(O)[C@H]3C[C@@H]12
TGI [1]: > 100 µM
TGI [2]: > 100 µM
TGI [3]: > 100 µM
TGI [4]: > 100 µM
TGI [5]: > 100 µM
TGI [6]: > 100 µM
TGI [7]: > 17.7 µM
TGI [8]: 57.4 µM
TGI [9]: > 77.8 µM
TGI [10]: 13.8 µM
TGI [11]: > 100 µM
TGI [12]: 22.5 µM
TGI [13]: > 69.5 µM
TGI [14]: > 100 µM
TGI [15]: 24.7 µM
TGI [16]: > 100 µM
TGI [17]: 11.6 µM
TGI [18]: > 100 µM
TGI [19]: 27.2 µM
TGI [20]: > 30 µM
TGI [21]: 53.5 µM
TGI [22]: > 100 µM
TGI [23]: > 100 µM
TGI [24]: > 16.9 µM
TGI [25]: > 100 µM
TGI [26]: > 68.9 µM
TGI [27]: 17.3 µM
TGI [28]: > 100 µM
TGI [29]: 15.8 µM
TGI [30]: 15 µM
TGI [31]: 13.1 µM
TGI [32]: > 100 µM
TGI [33]: > 100 µM
TGI [34]: 7.35 µM
TGI [35]: 14.5 µM
TGI [36]: > 17.2 µM
TGI [37]: 56.9 µM
TGI [38]: > 100 µM
TGI [39]: > 97.1 µM
TGI [40]: > 80.3 µM
TGI [41]: > 100 µM
TGI [42]: > 74.2 µM
TGI [43]: > 58.3 µM
TGI [44]: 98.6 µM
TGI [45]: > 100 µM
TGI [46]: > 100 µM
TGI [47]: 6.7 µM
TGI [48]: 5.37 µM
TGI [49]: > 47.5 µM
TGI [50]: > 92.2 µM
TGI [51]: > 100 µM
TGI [52]: 8.88 µM
TGI [53]: 3.09 µM
TGI [54]: 22.1 µM
TGI [55]: 10.9 µM
TGI [56]: 8.25 µM
TGI [57]: > 91.2 µM
TGI [58]: > 100 µM
TGI [59]: > 95.8 µM
TGI [60]: > 100 µM
TGI [61]: > 19.5 µM
TGI [62]: > 56.2 µM
TGI [63]: > 100 µM
TGI [64]: > 80.5 µM
TGI [65]: > 61.3 µM
TGI [66]: > 87.8 µM
TGI [67]: 7.59 µM
TGI [68]: 18.5 µM
TGI [69]: > 26.9 µM
